Values joined by “and” are separate entries in the source; they are usually repeats but may differ in a detail not shown here. Equal values may be shown once.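 Dose response: 5 concentrations. Exposure: 48 h. Format: 96-well plates. Endpoint: linear interpolation; highest concentration if not reached. GI50 = concentration required for 50% inhibition of growth. TGI: concentration producing complete growth inhibition.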
Each molecule was assayed on UO-31 renal (assay: NCI-60 cell line screen, 48 h).

Row | Compound | GI50 [µM] | TGI [µM]
1 | COc1ccc(/C(=C\C=C(C#N)C#N)Sc2nc3ccccc3s2)cc1 | 15.6 | > 50
2 | CC(C)(C)[Si](C)(C)OC1C(=O)C[C@H]2CCCC[C@@H]12 (some centres not stated) |  | > 100
3 | CCN(CC)CCSc1c2ccccc2nc2c(OC)ccc(OC)c12 |  | 33.9
4 | COc1cc(/C=C\c2cc(OC)c(OC)c(OC)c2)cc(N/C=C\C(=O)c2cc(OC)c(OC)c(OC)c2)c1OC | 2.63 | > 100
5 | Clc1nc(Cl)nc(Nc2cccc3ccccc23)n1 | 26.5 | > 100
6 | CCOC(=O)c1ccc(N=Nc2cc(C(=O)OCC)ccc2O)cc1 |  | > 100
7 | [N-]=[N+]=N/C1=C/CCCCC(=O)C1 |  | > 100
8 | CN(C)c1ncnc2c1ncn2CCn1cnc2c(N(C)C)ncnc21 |  | > 100
9 | CCOC(=O)C1SC(=Nc2ccccc2)N=C1C (configuration not stated) |  | > 100
10 | O=C1CCC(=O)c2c1c(O)c1ccncc1c2O |  | 31.4
11 | C=CCN1CCC23c4c5ccc(O)c4OC2C(=NN=C2CCC4(O)C6Cc7ccc(O)c8c7C4(CCN6CC=C)C2O8)CCC3(O)C1C5 (configuration not stated) |  | > 100
12 | CN1CC[C@@H](c2c(O)cc(O)c3c(=O)cc(-c4ccc(C(F)(F)F)cc4Cl)oc23)[C@@H]1CO | 11 | 37.8
13 | CN(C)CCNC(=O)c1cccc2c(Nc3ccc(S(=O)(=O)N=C(N)N)cc3)c3ccccc3nc12 |  | 48.6
14 | COC(=O)C1=C(C(=O)OC)C2=S(SC3=C2CCCC3)S1 (configuration not stated) |  | > 100
15 | COC(=O)c1ccc(-c2c(C#N)[n+](=O)c3cc(Cl)c(Cl)cc3n2[O-])cc1 | 26.3 | 67.3
16 | COc1ccc(Cn2c(N)c(S(=O)(=O)c3ccc(Cl)cc3)c3nc(C#N)c(C#N)nc32)cc1 | 32.6 | > 50

The molecules below were run on MOLT-4 leukemia (assay: NCI-60 cell line screen, 48 h).

Row | Compound | GI50 | TGI
17 | Cn1c(Nc2ccc(C(F)(F)F)cc2)nc2cc(Oc3ccnc(-c4ncc(C(F)(F)F)[nH]4)c3)ccc21 | 0.319 µM | 8.76 µM
18 | COc1ccc(-c2nsc3c2NC(=O)CC3c2cccc(OC)c2)cc1 (configuration not stated) | 2.18 µM | > 100 µM
19 | C[C@@]12CCC[C@@](C)(C(=O)O)C1CC[C@]13CC(=O)[C@](CO)(C1)[C@@H](O)CC32 (some centres not stated) | > 100 µM | > 100 µM
20 | O=[N+]([O-])c1ccc(CI)cc1 | 1.32 µM | 7.21 µM
21 | CN(C)C/C=C/C(=O)Nc1cc2c(Nc3ccc(F)c(Cl)c3)ncnc2cc1O[C@H]1CCOC1 | 2.43 µM and 1.45 µM | 11.3 µM and 7.24 µM
22 | Cn1cnnc1Sc1c([N+](=O)[O-])ncn1C |  | > 100 µM
23 | C=CCC1(CN(C)C)CC/C(=C\c2ccc(Cl)cc2)C1=O (configuration not stated) |  | 53 µM
24 | COc1cc(/C=C/C(=O)c2cccc(-n3cc(-c4ccc(Cl)cc4)[nH]c3=O)c2)ccc1O | 1.62 µM | > 25.1 µM
25 | CC(=O)N1CCC(=O)/C(=C/c2ccccc2)C1 |  | > 100 µM
26 | C[Si](C)(C)/C(Br)=C\CCN1C(=O)CCC1=O |  | > 100 µM
27 | CC1(Br)Cc2ccccc2C1=O (configuration not stated) | 0.423 µM | 9.91 µM and 3.4 µM
28 | C[C@]12CCC(=O)C=C1CC[C@@H]1C2CC[C@]2(C)Nc3[nH]ncc3CC12 (some centres not stated) |  | > 100 µM
29 | CCOC(=O)/C=C/c1ccc(C#Cc2ccccc2)cc1 | > 100 µM | > 100 µM
30 | O=[P@@]1(c2ccccc2)O[C@H](COCc2ccccc2)[C@@H](OCc2ccccc2)[C@H](OCc2ccccc2)[C@H]1NCc1ccccc1 | 2.38 µM | 7.8 µM
31 | CC(C)(C)[Si](C)(C)OC1C(=O)C[C@H]2CCCC[C@@H]12 (some centres not stated) |  | > 100 µM
32 | CCN(CC)CCSc1c2ccccc2nc2c(OC)ccc(OC)c12 |  | 3.84 µM
33 | COc1cc(/C=C\c2cc(OC)c(OC)c(OC)c2)cc(N/C=C\C(=O)c2cc(OC)c(OC)c(OC)c2)c1OC | 4.62 µM | > 100 µM
34 | Clc1nc(Cl)nc(Nc2cccc3ccccc23)n1 | 40.3 µM | > 100 µM
35 | CCOC(=O)c1ccc(N=Nc2cc(C(=O)OCC)ccc2O)cc1 |  | > 100 µM
36 | [N-]=[N+]=N/C1=C/CCCCC(=O)C1 |  | > 100 µM
37 | Cc1cc(N(CCCNc2ccnc3cc(Cl)ccc23)Cc2ccc3c(c2)OCO3)nc(N2CCOCC2)n1 | 0.283 µM | 0.953 µM
38 | CCOC(=O)C1SC(=Nc2ccccc2)N=C1C (configuration not stated) |  | > 100 µM
39 | O=C1CCC(=O)c2c1c(O)c1ccncc1c2O |  | 43.1 µM

Reference: PubChem BioAssay (NCI)
